Test results published in US20210283116A1, “METHODS OF TREATING ACUTE KIDNEY INJURY” (Mitobridge, Inc., priority 2016, published 2021).

Legend:
[1] = tested on: rat model of acute kidney injury (ischemia reperfusion injury); test: Ischemia reperfusion injury rat model of acute kidney injury, Compound A intravenously; format: in vivo, Sprague-Dawley male rats
Method: Animals, surgery and dosing: Sprague-Dawley male rats approximately 280-300 g, with ad libitum access to standard feed and water were used in these experiments. Rats (n=8/group) were anesthetized with isoflurane and placed ventrally on a temperature controlled heated surgical platform. A skin incision was made on the dorsal surface, exposing both kidneys through flank incisions. Vascular clips were applied to both renal pedicles and occlusion lasted 45 minutes. After 45 min, the clips were removed, kidneys were monitored for successful reperfusion, and surgical sites were then sutured. The sham group (n=4 rats) was subjected to similar surgical procedures, except that the occluding clamps were not applied. Compound A was formulated as a fresh daily clear solution of the hydrate of the meglumine salt of Compound A (1.5 Molar equivalent of Compound A) in 5% dextrose. Compound A was dosed IV via tail vein at 3 mg/kg, 1 mg/kg or 0.3 mg/kg 4 hours after animals awoke from surgery and sham surgery and IRI control animals were similarly dosed with vehicle.
Blood collection: Twenty-four (24) hours after reperfusion, blood was collected in K2 EDTA tubes by retro-orbital bleeding from all groups under mild isoflurane anesthesia. Plasma was separated by centrifugation at 3000 rpm for 10 minutes at 4° C. Urine collection: all study animal groups were placed in metabolic cages immediately after surgery recovery and urine was collected for 24 or 48 hours. Urine volume was carefully measured and then was centrifuged at 3000 rpm for 10 min at 4° C. to remove sediments. Plasma and urine creatinine were analyzed using a fully automated clinical biochemistry analyzer (Siemens Dimension® Xpand® Plus Integrated Chemistry System). Urinary NGAL was analyzed using a BioPorto ELISA kit. Creatinine clearance was calculated as follows: […]
GraphPad Prism software, Version 6.05 was used for graphing and statistical testing. Creatinine was tested for normal distribution in all groups via a D'Agostino-Pearson omnibus normality test and a Shapiro-Wilk normality test. Statistical significance (p<0.05) is determined by an ordinary One-way ANOVA followed by Dunnett's multiple comparison using the […] as the control group. **p<0.01, ***p<0.001 and ****p<0.0001 vs. IR-Vehicle.

[2] = tested on: rat model of acute kidney injury (ischemia reperfusion injury); test: Ischemia reperfusion injury rat model of acute kidney injury, Compound B orally; format: in vivo, Sprague-Dawley male rats
Method: Animals, surgery and dosing: Sprague-Dawley male rats approximately 280-300 g, with ad libitum access to standard feed and water were used in these experiments. Rats (n=8/group) were anesthetized with isoflurane and placed ventrally on a temperature controlled heated surgical platform. A skin incision was made on the dorsal surface, exposing both kidneys through flank incisions. Vascular clips were applied to both renal pedicles and occlusion lasted 45 minutes. After 45 min, the clips were removed, kidneys were monitored for successful reperfusion, and surgical sites were sutured. The sham group (n=4 rats) was subjected to similar surgical procedures, except that the occluding clamps were not applied. Compound B was formulated as a fresh daily suspension in 0.25% sodium carboxymethyl-cellulose, 0.25% Tween-80 in purified water. Compound B was dosed orally at 30 mg/kg 4 hours after animals awoke from surgery and sham surgery and IRI control animals were similarly dosed with vehicle. Blood collection: Twenty-four (24) hours after reperfusion, blood was collected in K2 EDTA tubes by retro-orbital bleeding from all groups under mild isoflurane anesthesia. Plasma was separated by centrifugation at 3000 rpm for 10 minutes at 4° C. Urine collection: all study animal groups were placed in metabolic cages immediately after surgery recovery and urine was collected for 24 hours. Urine volume was carefully measured and then was centrifuged at 3000 rpm for 10 min at 4° C. to remove sediments. Plasma and urine creatinine were analyzed using a fully automated clinical biochemistry analyzer (Siemens Dimension® Xpand® Plus Integrated Chemistry System). Creatinine clearance was calculated as follows: […]
GraphPad Prism software, Version 6.05 was used for graphing and statistical testing. Data was tested for normal distribution in all groups via a D'Agostino-Pearson omnibus normality test and a Shapiro-Wilk normality test. […] Statistical significance is determined by p<0.05 of IRI-vehicle compared to compound treated groups. **p<0.01 and ***p<0.001 vs. IR-Vehicle. […]

| SMILES | kidney function (creatinine clearance) ([1]; 0.3 mg/kg, 1 mg/kg or 3 mg/kg IV 4 hours after ischemia, 24 hours after kidney injury, vs. IR-Vehicle) | plasma creatinine ([1]; 0.3 mg/kg, 1 mg/kg or 3 mg/kg IV 4 hours after ischemia, 24 hours after reperfusion, vs. IR-Vehicle) | early kidney injury biomarker NGAL (urinary) ([1]; 0.3 mg/kg, 1 mg/kg or 3 mg/kg IV 4 hours after ischemia, 48 hours after kidney injury, vs. IR-Vehicle) | kidney injury ([1]; dosed IV 4 hours after ischemia, hydrate of meglumine salt in 5% dextrose) | plasma creatinine ([2]; 30 mg/kg orally 4 hours after ischemia, 24 hours after reperfusion, vs. IR-Vehicle) | kidney function (creatinine clearance) ([2]; 30 mg/kg orally 4 hours after ischemia, 24 hours urine collection, vs. IR-Vehicle) | kidney injury ([2]; 30 mg/kg orally, dosed 4 hours after ischemia) |
| --- | --- | --- | --- | --- | --- | --- | --- |
| Cc1cnc(-c2ccc(C(F)(F)F)nc2)n1Cc1ccccc1OCCC[C@@H](C)CC(=O)O [Compound A, (R)-3-methyl-6-(2-((5-methyl-2-(6-(trifluoromethyl)pyridin-3-yl)-1H-imidazol-1-yl)methyl)phenoxy)hexanoic acid] | improves kidney function | significantly reduces plasma creatinine | reduces the early kidney injury biomarker NGAL | reduces kidney injury | – | – | – |
| Cc1cc(SCc2nn(-c3ccc(C(F)(F)F)cc3)nc2C)ccc1OCC(=O)O [Compound B] | – | – | – | – | reduces plasma creatinine | improves kidney function | reduces kidney injury |
